For 9 compounds, IC50 results are on record in patent publication US20240228535A1 (priority 2022, published 2024).

This test has as its target SARS2 coronavirus 3CL protease (Severe acute respiratory syndrome coronavirus 2, UniProt P0DTD1). The experiment in a line: biochemical. To be noted: 5 nM enzyme, 30 min pre-incubation with compound, 15 μM peptide substrate, 4 h at room temperature; read-out: FRET Potency (nM); IC50 values in the SARS2 3CLPro FRET assay.
As for `CO[C@@H](C)C(=O)Nc1ccc(Cl)cc1C(=O)N[C@@H](C[C@@H]1C[C@@H](C)NC1=O)C(=O)C(=O)NC1CC1` [Example 166, 5-chloro-N-[(1S)-3-(cyclopropylamino)-1-[[(3S,5R)-5-methyl-2-oxo-pyrrolidin-3-yl]methyl]-2,3-dioxo-propyl]-2-[[(2S)-2-methoxypropanoyl]amino] benzamide], the IC50 stood at 10.1 nM.

Take `CNC(=O)C(=O)[C@H](C[C@@H]1C[C@@H](C)NC1=O)NC(=O)c1cc(Cl)ccc1NC(=O)OCC1CCCC(F)(F)C1` (stereo partly drawn) [Example 218, (3,3-difluorocyclohexyl)methyl N-[4-chloro-2-[[(1S)-3-(methylamino)-1-[[(3S,5R)-5-methyl-2-oxo-pyrrolidin-3-yl]methyl]-2,3-dioxo-propyl]carbamoyl]phenyl] carbamate]: the IC50 worked out at 6.8 nM.

As to `C[C@@H]1C[C@@H](C[C@H](NC(=O)c2cc(Cl)ccc2NC(=O)CCC(F)(F)F)C(=O)C(=O)NCc2nc[nH]n2)C(=O)N1` [Example 116, 5-chloro-N-[(1S)-1-[[(3S,5R)-5-methyl-2-oxo-pyrrolidin-3-yl]methyl]-2,3-dioxo-3-(1H-1,2,4-triazol-3-ylmethylamino)propyl]-2-(4,4,4-trifluorobutanoylamino) benzamide], the IC50 stood at 20.9 nM.

Consider `CNC(=O)C(=O)[C@H](C[C@@H]1C[C@@H](C)NC1=O)NC(=O)c1cc(C(F)F)ccc1NC(=O)c1cccc(C(F)(F)F)c1` [Example 70, 5-(difluoromethyl)-N-[(1S)-3-(methylamino)-1-[[(3S,5R)-5-methyl-2-oxo-pyrrolidin-3-yl]methyl]-2,3-dioxo-propyl]-2-[[3-(trifluoromethyl)benzoyl]amino]benzamide], for which the IC50 stood at 6.9 nM.

Take `C[C@@H]1C[C@@H](C[C@H](NC(=O)c2cc(F)cnc2NC(=O)C2CC(F)(F)C2)C(=O)C(=O)NC2CC2)C(=O)N1` [Example 23, N-[(1S)-3-(cyclopropylamino)-1-[[(3S,5R)-5-methyl-2-oxo-pyrrolidin-3-yl]methyl]-2,3-dioxo-propyl]-2-[(3,3-difluorocyclobutanecarbonyl)amino]-5-fluoro-pyridine-3-carboxamide]: the IC50 is 20.6 nM.

`CO[C@H](C)C(=O)Nc1ccc(Cl)cc1C(=O)N[C@@H](C[C@@H]1C[C@@H](C)NC1=O)C(=O)C(=O)NC1CC1` [Example 164, 5-chloro-N-[(1S)-3-(cyclopropylamino)-1-[[(3S,5R)-5-methyl-2-oxo-pyrrolidin-3-yl]methyl]-2,3-dioxo-propyl]-2-[[(2R)-2-methoxypropanoyl]amino] benzamide]: the IC50 stood at 4.8 nM.

On to `C[C@@H]1C[C@@H](C[C@H](NC(=O)c2cc(C(F)F)ccc2NC(=O)c2ccnc(C(F)(F)F)c2)C(=O)C(=O)NC2CC2)C(=O)N1` [Example 232, N-[2-[[(1S)-3-(cyclopropylamino)-1-[[(3S,5R)-5-methyl-2-oxo-pyrrolidin-3-yl]methyl]-2,3-dioxo-propyl]carbamoyl]-4-(difluoromethyl)phenyl]-2-(trifluoromethyl)pyridine-4-carboxamide], for which the IC50 was 10.4 nM.

As for `CC(C)OC(=O)Nc1ccc(Cl)cc1C(=O)N[C@@H](C[C@@H]1CCNC1=O)C(=O)C(=O)NC1CC1` [Example 96, isopropyl N-[4-chloro-2-[[(1S)-3-(cyclopropylamino)-2,3-dioxo-1-[[(3S)-2-oxopyrrolidin-3-yl]methyl]propyl]carbamoyl]phenyl]carbamate], the IC50 is 6 nM.

For `CNC(=O)C(=O)[C@H](C[C@@H]1C[C@@H](C)NC1=O)NC(=O)c1cc(Cl)ccc1NC(=O)c1cccc(C(F)(F)F)c1` [Example 45, 5-chloro-N-[(1S)-3-(methylamino)-1-[[(3S,5R)-5-methyl-2-oxo-pyrrolidin-3-yl]methyl]-2,3-dioxo-propyl]-2-[[3-(trifluoromethyl)benzoyl]amino]benzamide], the IC50 came to 9.4 nM.
